One series deals with mTOR (Homo sapiens, UniProt P42345). Kind of series: Potency of the ASi mTOR inhibition. It counts as biochemical.
The subject of another series is SNU-449. Description: Cell viability assay (CellTiter-Glo), SNU-449. The conditions noted are these: for inhibition at 10 µM: SNU-449, read-out: % inhibition at 10 μM SNU-449; for EC50: read-out: EC50 (nM) SNU-449.
A further series concerns SNU-398. Description: Cell viability assay (CellTiter-Glo), SNU-398. It counts as cell-based, human. The conditions noted are these: for inhibition at 10 µM: read-out: % inhibition at 10 μM SNU-398, 10 μM; for EC50: 72 h after compound treatment.
The test system of series [1] is mTORC1 and mTORC2 signaling (pS6, p4E-BP1, pAkt S473). Kind of series: Time-course effects on mTORC1 and mTORC2 signaling in SNU-449. It counts as cell-based, human. The conditions noted are these: 0.33-24 h. The procedure: Cellular Signaling Effects of Class mTOR Inhibitors. Cells were seeded in 60 mm cell culture dishes and incubated 1-2 days until 70-90% confluency. Cells were treated with compound solution in DMSO (1000×) and incubated at 37° C. in a 5% CO2 humidified incubator for a given length of time. Whole cell lysates were prepared using RIPA buffer (R^3792) (TEKnova, Hollister, CA USA) with a phosphatase inhibitor cocktail tablet PhosStop and a protease inhibitor cocktail tablet cOmplete Mini (Roche Diagnostics GmbH, Mannheim, Germany). Cell lysates (based on a certain amount of protein determined by Pierce BCA Protein Assay Kit (PI-23225) (Thermo Fisher Scientific Inc., Waltham, MA USA)) were electrophoresed using a Criterion Tris-HCl gel 4-20% (Bio-Rad Laboratories, Hercules, CA USA) and transferred to a nitrocellulose membrane (162-0115) (Bio-Rad Laboratories, Hercules, CA USA). After incubation for more than 1 h with a blocking buffer at room temperature, membranes were labeled with primary antibodies by overnight incubation at 4° C., followed by 1 hour incubation with horseradish peroxidase-conjugated (HRP-conjugated) secondary antibodies at room temperature. The following antibodies were used for immunoblot: phospho-Akt (S473) (#9271), phospho-Akt (T308) (#2965), total-Akt (#9272), phospho-S6 (Ser240/Ser244) (#2215L), S6 ribosomal protein (#2217), phospho-4E-BP1 (T37/T46) (#2855), total 4E-BP1 (#9644) (Cell Signaling Technology, Inc., Danvers, MA USA), FKBP12 (sc-28814) mouse β-actin (sc-8432) (Santa Cruz Biotechnology, Inc., Dallas, Texas USA), anti-rabbit IgG conjugated with horseradish peroxidase (HRP) (#7074), and anti-mouse IgG conjugated with HRP (#7076) (Cell Signaling Technology, Inc., Danvers, MA USA). Nitrocellulose membranes were exposed with SuperSignal® West Pico Chemiluminescent Substrate or Femto Maximum Sensitivity Substrate (Thermo Fisher Scientific Inc., Waltham, MA USA) and signals were recorded on a CL-Xposure film (Thermo Fisher Scientific Inc., Waltham, MA USA).

In series [2] the test system is TORC1 and TORC2 outputs (p4E-BP1, pS6). Description: Drug washout experiment in SNU-449 cells. The conditions noted are these: 30 nM for 3 h, then washout. It counts as cell-based, human. The procedure:
Cellular Signaling Effects of Class mTOR Inhibitors. Cells were seeded in 60 mm cell culture dishes and incubated 1-2 days until 70-90% confluency. Cells were treated with compound solution in DMSO (1000×) and incubated at 37° C. in a 5% CO2 humidified incubator for a given length of time. […] After incubation for more than 1 h with a blocking buffer at room temperature, membranes were labeled with primary antibodies by overnight incubation at 4° C., followed by 1 hour incubation with horseradish peroxidase-conjugated (HRP-conjugated) secondary antibodies at room temperature. […] Nitrocellulose membranes were exposed with SuperSignal® West Pico Chemiluminescent Substrate or Femto Maximum Sensitivity Substrate (Thermo Fisher Scientific Inc., Waltham, MA USA) and signals were recorded on a CL-Xposure film (Thermo Fisher Scientific Inc., Waltham, MA USA).
Drug Washout Experiment. SNU-449 cells were treated with 30 nM of compounds for 3 h. The medium was aspirated out and cells were washed with fresh 10% FBS in RPMI1640 medium. Then, cells were incubated with fresh 10% FBS in RPMI1640 medium at 37° C. for described time period.

The test system of the next series is 786-O. Description: Cell viability assay (CellTiter-Glo), 786-O. It counts as cell-based, human. Background: Cellular ATP, detected with luciferase, serves as a proxy for viable cell number.
Series [3] in a line: Effect on blood glucose level in mice. The conditions noted are these: mice (n=3), intraperitoneal, Rapamycin treatment group (5 mg/kg, FIG. 10).
Text: Effect on blood glucose level. […] Blood glucose levels (mg/dL) were monitored.
The subject of a further series is HCT-15. Description: Cell viability assay (CellTiter-Glo), HCT-15. It counts as cell-based, human. The following applies: for EC50: 72 h after compound treatment.
The test system of another series is SNU-182. Description: Cell viability assay (CellTiter-Glo), SNU-182. It counts as cell-based, human. The following applies: for inhibition at 10 µM: read-out: % inhibition at 10 μM SNU-182, 10 μM; for EC50: 72 h after compound treatment.
In series [4] the test system is mTORC1 (pS6 S240/244, P-4EBP1). Kind of series: Western blot analysis in SNU-449 cells (E1010). The following applies: 3 hours (FIG. 13B). It counts as cell-based, human. The procedure:
FIGS. 13A-13B. FIG. 13A: MCF-7 cells were treated for 4 hours with E1035 and M1071 before harvesting. FIG. 13B: SNU-449 cells were treated with 3 hours with E1010 before harvesting. Cells were lysed and blotted for the indicated proteins. M1071 has the narrowest concentration range between mTORC1 and mTORC2 inhibition. The concentration range between mTORC1 and mTORC2 inhibition widens for E1035.
Cell Culture and Western Blot Analysis. Cells were grown in 6-well plates and treated with inhibitor at the indicated concentrations or with vehicle (0.1% DMSO). Treated cells were lysed, and lysates were resolved by SDS-PAGE, transferred to nitrocellulose and blotted. All antibodies were purchased from Cell Signaling Technology.
In general terms: A western blot detects proteins with antibodies after separation by electrophoresis.

Series [5] concerns mTORC1 and mTORC2 downstream signaling (pS6, p4E-BP1, pAkt S473). Kind of series: Downstream signaling of mTOR by immunoblotting, dose dependence, HCT-15 and SNU-449 cells. The following applies: immunoblot at 3 h after compound treatment. It counts as cell-based, human.
Experimental: Downstream signaling of mTOR was tested using an immunoblotting method at 3 h after compound treatment.

SMILES strings stand for the structures. Read-outs that look alike come from different tables or passages of the source.

Experimental for 786-O: (§1) The cells were grown in appropriate medium (vender recommended) supplemented with 10% heat-inactivated fetal bovine serum (FBS), in tissue culture dishes placed in a humidified incubator maintained at 37° C. in an atmosphere of 5% CO2 and 95% air.
(§2) Cell viability assay. Cells were seeded in a 96-multiwell plate at 3000-4000 cells per well in medium containing FBS and cells were incubated at 37° C. overnight. After 18-20 h, compounds in 10×DMSO solution (n=3) were added to the cells and were incubated for additional 3 days in a humidified incubator in an atmosphere of 5% CO2 and 95% air. After treatment of Cell Titer-Glo® luminescent cell viability assay reagent (Promega Corporation, Madison, WI USA), the luminescence value was recorded using SpectraMax M5 Multi-Mode Microplate Readers (Molecular Devices, LLC, Sunnyvale, CA USA). Concentration response curves were generated on GraphPad Prism (GraphPad Software, La Jolla, CA USA) by calculating the decrease in luminescence values in compound-treated samples relative to the DMSO controls.
(§3) Anti-proliferative effects of compounds were evaluated in human colorectal cancer HCT-15 cells (mutation: KRAS, PIK3CA), human hepatocellular carcinoma SNU-449 (mutation: TP53, CDKN2A), SNU-398 (mutation: CTNNB 1), SNU-182 (mutation: TP53) and renal adenocarcinoma 786-O (mutation: VHL, PTEN, TP53, CDKN2A) in 72 h after compound treatment.
Experimental for SNU-182: as §1, §2, §3
Experimental for SNU-398: as §1, §2, §3

In the case of `COc1ccc2[nH]c(-c3nn(C(C)C)c4ncnc(N)c34)cc2c1` [MeO-PP242], the IC50 (in general, the concentration that inhibits the measured activity by half) against mTOR was over 10000 nM.

For `CO[C@H]1C[C@@H]2CC[C@@H](C)[C@@](O)(O2)C(=O)C(=O)N2CCCC[C@H]2C(=O)O[C@H]([C@H](C)C[C@@H]2CC[C@@H](O)[C@H](OC)C2)CC(=O)[C@H](C)/C=C(\C)[C@@H](O)[C@@H](OC)C(=O)[C@H](C)C[C@H](C)/C=C/C=C/C=C/1C` [Rapamycin, (3 S,6R,7E,9R,10R,12R,14S,15E,17E,19E,21S,23 S,26R,27R,34aS)-9,10,12,13,14,21,22,23,24,25,26,27,32,33,34,34a-hexadecahydro-9,27-dihydroxy-3-[(1R)-2-[(1S,3R,4R)-4-hydroxy-3-methoxycyclohexyl]-1-methylethyl]-10,21-dimethoxy-6,8,12,14,20,26-hexamethyl-23,27-epoxy-3H-pyrido[2,1-c][1,4]-oxaazacyclohentriacontine-1,5,11,28,29(4H,6H,31H)-pentone, reference compound], the inhibition (as a rule, the change of the read-out against control, counted positive when it falls) at 10 µM was under 25% in the series with SNU-449 (Homo sapiens); 25 to 50% with SNU-398 (Homo sapiens); under 25% in the series on 786-O (Homo sapiens, 786-0, read-out: % inhibition at 10 μM 786-O, 10 μM); 25 to 50% with HCT-15 (Homo sapiens, read-out: % inhibition at 10 μM HCT-15, 10 μM); under 25% in the series on SNU-182 (Homo sapiens). In addition, in series [1], the “p4E-BP1 inhibition, time course” value is on record as “moderate inhibitory activity”. In [1], the “phosphorylation of Akt S473, time course” value was “transient feedback activation on Akt S473 at 1 and 3 h, and then a slight inhibition was observed at 24 h”. In [2], the “maintenance of effects after washout” value is “maintained longer after washout compared to asTORi”. Also, the blood glucose level entry in [3] is recorded as “no increase in blood glucose levels”.

For `COc1ccc2[nH]c(-c3nn(CCCCNC(=O)CCOCCOCCOCCOCCOCCOCCOCCOCCn4cc(COCCO[C@@H]5CC[C@@H](C[C@@H](C)[C@@H]6CC(=O)[C@H](C)/C=C(\C)[C@@H](O)[C@@H](OC)C(=O)[C@H](C)C[C@H](C)/C=C/C=C/C=C(\C)[C@@H](OC)C[C@@H]7CC[C@@H](C)[C@@](O)(O7)C(=O)C(=O)N7CCCC[C@H]7C(=O)O6)C[C@H]5OC)nn4)c4ncnc(N)c34)cc2c1` [Compound E1010], in [4], the “inhibition of P-4EBP1” value is recorded as “little or no inhibition”, the “inhibition of pS6 (S240/244)” value was “inhibition” and the mTORC1 inhibition entry is listed as “only partially inhibits mTORC1”.

`COC1CC2CCC(C)C(O)(O2)C(=O)C(=O)N2CCCCC2C(=O)OC(C(C)CC2CCC(OCCOCc3cn(CCOCCOCCOCCOCCOCCOCCOCCNC(=O)CCCCn4nc(-c5ccc6oc(N)nc6c5)c5c(N)ncnc54)nn3)C(OC)C2)CC(=O)C(C)C=C(C)C(O)C(OC)C(=O)C(C)CC(C)C=CC=CC=C1C` (stereo not shown) [Compound M-1111, 40-O-(2-((1-(29-(4-amino-3-(2-aminobenzo[d]oxazol-5-yl)-1H-pyrazolo[3,4-d]pyrimidin-1-yl)-25-oxo-3,6,9,12,15,18,21-heptaoxa-24-azanonacosyl)-1H-1,2,3-triazol-4-yl)methoxy)ethyl)-rapamycin]: the “% inhibition at 10 μM SNU-449” value in the series on SNU-449 (10 μM, SNU-449) is on record as “++ (25% < ++ ≤ 50%)”. Moreover, the EC50 (in general, the concentration giving half of the maximal effect) is under 10 nM in the series with SNU-449 (SNU-449, 72 h after compound treatment); under 10 nM in the series with SNU-398; 10 to 50 nM in the series with 786-O (72 h after compound treatment); 10 to 50 nM in the series on HCT-15; under 10 nM in the series with SNU-182. Moreover, the “% inhibition at 10 μM SNU-398” value with SNU-398 (10 μM) is on record as “+++ (50% < +++ ≤ 100%)”. Further, the “% inhibition at 10 μM 786-O” value in the series with 786-O (10 μM) is recorded as “+++ (50% < +++ ≤ 100%)”. The “% inhibition at 10 μM HCT-15” value in the series on HCT-15 (10 μM) is given as “+++ (50% < +++ ≤ 100%)”. In the series with SNU-182 (10 μM), the “% inhibition at 10 μM SNU-182” value is on record as “++ (25% < ++ ≤ 50%)”. For the same molecule, the “mTORC1/2 downstream inhibition (pS6, p4E-BP1 and pAkt S473)” value in series [5] was “stronger inhibition of mTORC1 signaling (pS6 and p4E-BP1) compared to mTORC2 downstream Akt S473 phosphorylation”. Besides, the p4E-BP1 inhibition entry in [5] is listed as “complete p4E-BP1 inhibition at drug concentrations in which pAkt S473 is not inhibited”.

With `CO[C@H]1C[C@@H]2CC[C@@H](C)[C@@](O)(O2)C(=O)C(=O)N2CCCC[C@H]2C(=O)O[C@H]([C@H](C)C[C@@H]2CC[C@@H](OCCOCc3cn(CCCCn4nc(-c5ccc6oc(N)nc6c5)c5c(N)ncnc54)nn3)[C@H](OC)C2)CC(=O)[C@H](C)/C=C(\C)[C@@H](O)[C@@H](OC)C(=O)[C@H](C)C[C@H](C)/C=C/C=C/C=C/1C` [Compound M-1115, 40-O-(2-((1-(4-(4-amino-3-(2-aminobenzo[d]oxazol-5-yl)-^1H-pyrazolo[3,4-d]pyrimidin-1-yl)butyl)-1H-1,2,3-triazol-4-yl)methoxy)ethyl)-rapamycin], the EC50 in the series with SNU-449 (Homo sapiens, SNU-449, 72 h) was over 100 nM; with SNU-398 (Homo sapiens) it was 10 to 50 nM; in the series with 786-O (Homo sapiens, 786-0, 72 h after compound treatment), over 100 nM; in the series on HCT-15 (Homo sapiens), over 100 nM; in the series with SNU-182 (Homo sapiens), 10 to 50 nM. In addition, the p4E-BP1 inhibition entry in series [5] is recorded as “weaker p4E-BP1 inhibition”.

With `CO[C@H]1C[C@@H]2CC[C@@H](C)[C@@](O)(O2)C(=O)C(=O)N2CCCC[C@H]2C(=O)O[C@H]([C@H](C)C[C@@H]2CC[C@@H](OCCOCc3cn(CCOCCOCCOCCOCCC(=O)NCCCCn4nc(-c5ccc6oc(N)nc6c5)c5c(N)ncnc54)nn3)[C@H](OC)C2)CC(=O)[C@H](C)/C=C(\C)[C@@H](O)[C@@H](OC)C(=O)[C@H](C)C[C@H](C)/C=C/C=C/C=C/1C` [Compound M-3059, 40-O-(2-((1-(20-(4-amino-3-(2-aminobenzo[d]oxazol-5-yl)-1H-pyrazolo[3,4-d]pyrimidin-1-yl)-15-oxo-3,6,9,12-tetraoxa-16-azaicosyl)-1H-1,2,3-triazol-4-yl)methoxy)ethyl)-rapamycin], the inhibition at 10 µM in the series with SNU-449 (Homo sapiens) was under 25%; in the series on SNU-398 (Homo sapiens), 50 to 100%; in the series on SNU-182 (Homo sapiens), under 25%.

Values taken from US12097262B2, “mTORC1 inhibitors” (THE REGENTS OF THE UNIVERSITY OF CALIFORNIA, priority 2014, dated 2024).
